Assay: Ready-to-use formulation stability at 25° C./60% RH, 5 mg/mL (R,R)-pyrodach-2 in 10 mM Sodium Phosphate Buffer, 5.2 mM Sodium Pyrophosphate at pH 7.5, 10 mL vials
Assay type: physicochemical
Description: Stability data on the formulation with added pyrophosphate at 40° C./75% RH in Table 12 is even more dramatic. […] [table] [table] • Transfer 1419.6 mg±14.0 mg of dibasic sodium phosphate anhydrous to a 1-L volumetric flask. • Transfer 2298.5 mg±23.0 mg of tetrasodium pyrophosphate decahydrate into the same 1-L volumetric flask. • Fill flask to approximately 75% volume with sterile water for injection, swirl as needed to dissolve all solids. • Volumetrically transfer 8.0 mL of 1N NaOH to flask. • Dilute flask to volume with water and mix well. • Record the pH of final solution. This is the vehicle. • Determine the tare weight of a 500-mL compounding vessel with stir bar. • Transfer 2500.1 mg±25.0 mg of (R,R)-pyrodach-2 to the vessel. • Transfer 450.0 g±0.1 g of the vehicle to the vessel and stir to dissolve solids. • Determine the initial pH of the solution. • Slowly adjust the pH of the solution to 7.5±0.1 by adding additional N NaOH. • Determine the gross solution weight and dilute the solution weight to 500.0 g±0.1 g by adding additional vehicle into the compounding vessel. Density=1.00 g/mL. • Stir the final solution for an additional 5 minutes. • Determine the pH of final solution. • Pass the entire solution through a 0.22 μm PVDF Stericup filter into a sterile collection vessel. • Conduct the following in a laminar flow hood; fill 10-mL sterile tubing vials with 10 mL of solution, stoppered with a sterile Flurotec stopper, and crimp-capped with a flip-off seal. • Place vials in 40° C./75% RH and 25° C./60% RH stability chambers. HPLC method in Example 3 to monitor purity and impurities.

SMILES: O=P1(O)OP(=O)(O)[O][Pt]2([NH][C@@H]3CCCC[C@H]3[NH]2)[O]1 (stereo partly drawn) [(R,R)-pyrodach-2, (R,R)-trans-1,2-cyclohexanediamine-(dihydrogenpyrophosphato)platinum(II)]
- Individual Related Substances RRT 0.28-0.29 (1 Month): 0.10%
- Individual Related Substances RRT 0.50-0.51 (1 Month): 0.08%
- Individual Related Substances RRT 0.58 (1 Month): 0.39%
- Individual Related Substances RRT 0.73-0.74 (1 Month): 0.71%
- Potency (Assay) (1 Month): 102.2%
- Total Related Substances (1 Month): 1.3%
- pH (1 Month): 7.6
- Individual Related Substances RRT 0.28-0.29 (2 Months): 0.20%
- Individual Related Substances RRT 0.50-0.51 (2 Months): 0.15%
- Individual Related Substances RRT 0.58 (2 Months): 0.38%
- Individual Related Substances RRT 0.73-0.74 (2 Months): 0.92%
- Potency (Assay) (2 Months): 103.8%
- Total Related Substances (2 Months): 1.6%
- pH (2 Months): 7.6
- Individual Related Substances RRT 0.28-0.29 (3 Months): 0.17%
- Individual Related Substances RRT 0.50-0.51 (3 Months): 0.11%
- Individual Related Substances RRT 0.58 (3 Months): 0.43%
- Individual Related Substances RRT 0.73-0.74 (3 Months): 0.88%
- Potency (Assay) (3 Months): 101.4%
- Total Related Substances (3 Months): 1.6%
- pH (3 Months): 7.6
- Individual Related Substances RRT 0.28-0.29 (6 Months): 0.17%
- Individual Related Substances RRT 0.50-0.51 (6 Months): 0.12%
- Individual Related Substances RRT 0.58 (6 Months): 0.44%
- Individual Related Substances RRT 0.73-0.74 (6 Months): 0.81%
- Potency (Assay) (6 Months): 102.8%
- Total Related Substances (6 Months): 1.5%
- pH (6 Months): 7.6
- Individual Related Substances RRT 0.28-0.29 (9 Months): 0.18%
- Individual Related Substances RRT 0.50-0.51 (9 Months): 0.21%
- Individual Related Substances RRT 0.58 (9 Months): 0.42%
- Individual Related Substances RRT 0.73-0.74 (9 Months): 0.27%
- Potency (Assay) (9 Months): 101.7%
- Total Related Substances (9 Months): 1.20%
- pH (9 Months): 7.6
- Individual Related Substances PT-112 Dimer (Initial): 0.16%
- Individual Related Substances RRT 0.28-0.29 (Initial): 0.14%
- Individual Related Substances RRT 0.50-0.51 (Initial): 0.08%
- Individual Related Substances RRT 0.58 (Initial): 0.34%
- Individual Related Substances RRT 0.73-0.74 (Initial): 0.83%
- Individual Related Substances RRT 0.92 (Initial): 0.05%
- Individual Related Substances RRT 1.57 (Initial): 0.12%
- Potency (Assay) (Initial): 102.0%
- Total Related Substances (Initial): 1.7%
- pH (Initial): 7.5

Reference: patent US11154529B2, “Phosphaplatin liquid formulations” (Phosplatin Therapeutics Inc., priority 2016, dated 2021)
